# Test results reported in patent US20040048830A1, “Use of cortisol-sequestering agents for the treatment of hypercortisolaemia related disorders” (priority 2000, published 2004).
# Read-outs that look alike come from different tables or passages of the source. Marks after values point to notes of the source that are not given here.
# Experiments:
# [1] = 1:1 cyclodextrin:cortisol complex in water, reported values; cited from earlier work
# [2] = UV titration of cyclodextrin into cortisol (absorbance at 246 nm); assay type: binding; conditions: 1:1 cortisol:γ-cyclodextrin complex
# Source text: UV-visible spectroscopy was used to monitor the complex formation between cortisol and a library of cyclodextrin derivatives. The UV spectrum of cortisol contains an absorption band having a maximum at 246 nm. The intensity of the UV line at 246 nm decreases upon complexation of cortisol by addition of a cyclodextrin host molecule. The decrease in the absorbance of an aqueous solution of the guest molecule (cortisol) upon addition of a typical host molecule (like a cyclodextrin derivative) is taken as evidence that the guest molecule has moved from the polar aqueous environment to the usually less polar environment of the interior of the host molecule. The methodology is well established in the field of supramolecular chemistry (Tsukube, H. et al. In Comprehensive Supramolecular Chemistry: Physical Methods in Supramolecular Chemistry. Davies J E D, Ripmeester J A, (Eds) Elsevier, Oxford, 1996: Vol 8, pp 425-483).
# The association constants for complex formation are determined by performing a titration of cyclodextrin into cortisol and recording the UV spectrum as a function of the cyclodextrin/steroid ratio. The change in absorption of cortisol at 246 nm (Δ A) upon stepwise addition of cyclodextrin is recorded. The best fit line to the data give Ka for the cortisol-cyclodextrin complex (Liu Y, Li, B, You C-C, Wada, T, Inoue Y. J. Org. Chem., 2001, 66, 225-232). […]
# [3] = Urinary excretion of exogenous cortisol in the rat; assay type: in vivo, Lister hooded rats
# Protocol: Two groups of four rats (Lister hooded rats, 300-320 g) were administered (intravenously) either […] of cortisol alone (Group I) or cortisol followed after 15 minutes by 6-per-deoxy-6-per-(2,3-dihydroxypropylthio)-γ-cyclodextrin (Org 26276) as a single intravenous dose of 20 mg/kg (Group II). Each rat was placed in a metabolic cage for the collection of urine. Urine samples were collected for the first 5 hours and thereafter for the remainder of 24 hours The collected urine samples were subjected to HPLC-MS (high pressure liquid chromatograpy on a Phenomenex Luna (50×2 mm; […]) column coupled to a PE Sciex API 3000 Mass Spectrometer). The limit of quantitation for cortisol in urine was 2.5 ng/ml and 10 ng/ml in plasma.
# [4] = Urinary excretion of endogenous cortisol in the guinea pig; assay type: in vivo; conditions: iv 5 mg/250 g
# Protocol: In guinea piogs cortisol is endogenously produced, the basal level of which is approximately 120-150 ng/ml in plasma.
# [5] = Isothermal titration calorimetry (microcalorimetry) of cortisol complex; assay type: binding; conditions: 1:1 cortisol complex, microcalorimetry / ITC
# Source text: The interaction between a sequestering agent and cortisol can be analyzed by physical methods such as nuclear magnetic resonance spectroscopy (nmr) (Fielding, L.: Tetrahedron, 56 (34), 6151-6170, 2000) and microcalorimetry (Stoedeman M. and Wadsoe I.: Pure Appl. Chem., 67(7), 1059-68, 1995). These techniques also allow one to establish the selectivity of the binding to cortisol in comparison with the other endogenous steroidal compounds.
# The association constants for complex formation are determined by performing a titration of cyclodextrin into cortisol and recording the UV spectrum as a function of the cyclodextrin/steroid ratio. The change in absorption of cortisol at 246 nm (Δ A) upon stepwise addition of cyclodextrin is recorded. The best fit line to the data give Ka for the cortisol-cyclodextrin complex (Liu Y, Li, B, You C-C, Wada, T, Inoue Y. J. Org. Chem., 2001, 66, 225-232). The UV methodology provides a fairly good estimate of the association constant when this constant is below 10^5 M^−1. The results used for the determination of the association constant for the binding of cortisol to γ-cyclodextrin, β-cyclodextrin and to 2 γ-cyclodextrin derivatives are shown in FIG. 1. […] This is because the chromophore in cortisol is relatively weak and instrument signal to noise issues prevented the preparation of sufficiently dilute solutions. […] The high cortisol binding constant for these γ-cyclodextrin derivatives indicates these derivatives to be potentially very active cortisol sequestering agents. An alternative, but more laborious, method for the determination of the cortisol association constant is by isothermal titration calorimetry (see Wiseman et al. […], 131-137), which can be used to determine the high Ka's more accurately.
compound,measurement,setting,value
"Per-2,6-methyl-β-CD",Association Constant (Ka),[1],5910 M⁻¹
"6-per-deoxy-6-per-(2,3-dihydroxypropylthio)-γ-cyclodextrin [Org 26276]",Ka,[2]; listed as Example 1,">100,000^a M^−1"
same,enhancement of excretion of cortisol compared to the control group,"[3]; 20 mg/kg iv, versus group that received cortisol alone",approximately 10 fold
same,mean cortisol level in the urine,"[3]; iv cortisol followed after 15 minutes by 20 mg/kg iv, urine collected in the first 5 hours",111 ± 78 ng/mL
same,increase of amount of urinary cortisol excreted during 24 hours compared to the control group,[4],3 fold
Per-6-acetyl-β-CD,Association Constant (Ka),[1],3920 M⁻¹
O=C(O)c1ccc(SCC2OC3OC4C(CSc5ccc(C(=O)O)cc5)OC(OC5C(CSc6ccc(C(=O)O)cc6)OC(OC6C(CSc7ccc(C(=O)O)cc7)OC(OC7C(CSc8ccc(C(=O)O)cc8)OC(OC8C(CSc9ccc(C(=O)O)cc9)OC(OC9C(CSc%10ccc(C(=O)O)cc%10)OC(OC%10C(CSc%11ccc(C(=O)O)cc%11)OC(OC2C(O)C3O)C(O)C%10O)C(O)C9O)C(O)C8O)C(O)C7O)C(O)C6O)C(O)C5O)C(O)C4O)cc1 (centres unmarked) [6-per-deoxy-6-per-(4-carboxyphenyl)thio-γ-cyclodextrin],Association Constant (Ka),[5],"˜80,000^b M^−1"
OC[C@H]1O[C@@H]2O[C@H]3[C@H](O)[C@@H](O)[C@@H](O[C@H]4[C@H](O)[C@@H](O)[C@@H](O[C@H]5[C@H](O)[C@@H](O)[C@@H](O[C@H]6[C@H](O)[C@@H](O)[C@@H](O[C@H]7[C@H](O)[C@@H](O)[C@@H](O[C@H]1[C@H](O)[C@H]2O)O[C@@H]7CO)O[C@@H]6CO)O[C@@H]5CO)O[C@@H]4CO)O[C@@H]3CO [α-CD],Association Constant (Ka),[1],57 M⁻¹
"OC[C@H]1O[C@@H]2O[C@H]3[C@H](O)[C@@H](O)[C@@H](O[C@H]4[C@H](O)[C@@H](O)[C@@H](O[C@H]5[C@H](O)[C@@H](O)[C@@H](O[C@H]6[C@H](O)[C@@H](O)[C@@H](O[C@H]7[C@H](O)[C@@H](O)[C@@H](O[C@H]8[C@H](O)[C@@H](O)[C@@H](O[C@H]9[C@H](O)[C@@H](O)[C@@H](O[C@H]1[C@H](O)[C@H]2O)O[C@@H]9CO)O[C@@H]8CO)O[C@@H]7CO)O[C@@H]6CO)O[C@@H]5CO)O[C@@H]4CO)O[C@@H]3CO [γ-CD, γ-cyclodextrin]",Association Constant (Ka),[1],2240 M⁻¹
"OC[C@H]1O[C@@H]2O[C@H]3[C@H](O)[C@@H](O)[C@@H](O[C@H]4[C@H](O)[C@@H](O)[C@@H](O[C@H]5[C@H](O)[C@@H](O)[C@@H](O[C@H]6[C@H](O)[C@@H](O)[C@@H](O[C@H]7[C@H](O)[C@@H](O)[C@@H](O[C@H]8[C@H](O)[C@@H](O)[C@@H](O[C@H]1[C@H](O)[C@H]2O)O[C@@H]8CO)O[C@@H]7CO)O[C@@H]6CO)O[C@@H]5CO)O[C@@H]4CO)O[C@@H]3CO [β-CD, β-cyclodextrin]",Association Constant (Ka),[1],1720 to 3000 M⁻¹
O=C(O)CCSC[C@H]1O[C@@H]2O[C@H]3[C@H](O)[C@@H](O)[C@@H](O[C@H]4[C@H](O)[C@@H](O)[C@@H](O[C@H]5[C@H](O)[C@@H](O)[C@@H](O[C@H]6[C@H](O)[C@@H](O)[C@@H](O[C@H]7[C@H](O)[C@@H](O)[C@@H](O[C@H]8[C@H](O)[C@@H](O)[C@@H](O[C@H]9[C@H](O)[C@@H](O)[C@@H](O[C@H]1[C@H](O)[C@H]2O)O[C@@H]9CSCCC(=O)O)O[C@@H]8CSCCC(=O)O)O[C@@H]7CSCCC(=O)O)O[C@@H]6CSCCC(=O)O)O[C@@H]5CSCCC(=O)O)O[C@@H]4CSCCC(=O)O)O[C@@H]3CSCCC(=O)O [6-per-deoxy-6-per-(2-carboxyethyl)thio-γ-cyclodextrin],Ka,[2],"~30,000 M^−1"
same,Association Constant (Ka),[5],"~40,000 M^−1"
same,Association Constant (Ka),[5]; listed as Per-6-deoxy-per-6-(2-carboxyethyl)thio-γ-cyclodextrin,40000* M^−1
Hydroxypropyl-β-CD,Association Constant (Ka),[1],900 to 1000 M⁻¹
